Measurements taken from patent US12508176B2, “Sanitary article comprising a water-soluble dry coating comprising skin beneficial additives” (priority 2022, dated 2025).

Assay: transfer study of dry water-soluble coating from sanitary article to skin (tape stripping, LC-MS/MS)
Format: in vivo, test persons
Text: FIG. 3 is a bar chart illustrating the results from a transfer study made with two sanitary articles according to the present invention. Eight test persons wore sanitary articles on three different spots on the volar forearms for three days (3 products per day). One spot was covered with products coated with formula A, one with products coated with formula B and one with reference product without any formula. After three days the skin in the test spots plus one additional spot where no product had been worn was harvested by means of tape stripping. The sample tape strips were extracted, analyzed by LC-MS/MS quantifying the betaine and allantoin content.

NC(=O)NC1NC(=O)NC1=O (centres unmarked) [allantoin]
transfer to the skin (betaine and allantoin content of tape strips) (sanitary articles coated with formula A or B worn on volar forearms for three days, 3 products per day, tape stripping, LC-MS/MS, FIG. 3): readily detected on the skin

C[N+](C)(C)CC(=O)[O-] [betaine, trimethylglycine]
transfer to the skin (betaine and allantoin content of tape strips) (in vivo): readily detected on the skin
